Source: paper PMC4865845, “A human genome-wide loss-of-function screen identifies effective chikungunya antiviral drugs” (Nature Communications, 2016)

Test system: CHIKV
Format: cell-based, chikungunya virus

Substance | Score_si1 | Score_si3 | Score_si2 | Score_si4
Hs_RASL11B_2 (sense ATGCTTTGGCTTAAACTGTAA; chemistry not given here) | 2.53 |  |  | 
s8541 (CAATCTCCGGAGGCACGAA; chemistry not given here) |  | 0.12 |  | 
Hs_PTBP1_5 (sense CACGCACATTCCGTTGCCTTA; chemistry not given here) [reference compound] |  |  | -1.23 | 
Hs_WIG1_2 (CAGGCTCATTATCAGGGTAAA; chemistry not given here) |  |  |  | -0.33
Hs_ATP6AP2_2 (AAGAGTGTATATGGTAGGGAA; chemistry not given here) |  |  |  | 0.62
Hs_SHC2_10 (sense GCGGTTTGTCCTACAAGTTTA; chemistry not given here) |  |  |  | 0.47
Hs_LRP6_7 (CTGGATGGTTCTGACCGTGTA; chemistry not given here) | 1.93 |  |  | 
s8292 (sense GGATTGTTATCCGACTGAA; chemistry not given here) |  | 1.63 |  | 
s14705 (sense GCAGTTGAATTATCACAGT; chemistry not given here) |  |  | 1.97 | 
Hs_PCQAP_1 (CCGCATGATCAACAAGATCGA; chemistry not given here) [reference compound] | -1.12 |  |  | 
Hs_ATF1_7 (CCAATAAATTCTAAATTACAA; chemistry not given here) [reference compound] |  |  | -1.38 | 
Hs_PITRM1_1 (TAGGTTCTTCACGTACGGTAA; chemistry not given here) [reference compound] | -1.2 |  |  | 
s28993 (CCATAGATCTGAATTGGGA; chemistry not given here) |  |  | 0.6 | 
Hs_KIAA0674_1 (sense CCGGAAACAACTGGAACTCAA; chemistry not given here) | 1.96 |  |  | 
Hs_KIAA0252_2 (sense AAGGAATTATCTATTAAAGAA; chemistry not given here) | 2.74 |  |  | 
Hs_APEX2_3 (AGGGCCCTTCATCGATAGCTA; chemistry not given here) [reference compound] | -3.29 |  |  | 
Hs_PEX19_2 (TCCCTTGAGTATTTCAATGTA; chemistry not given here) |  | 0.58 |  | 
Hs_ITGB4BP_2 (sense AAGCTACTGTGTCTTCAGCAA; chemistry not given here) |  |  |  | 1.08
Hs_GFRA4_4 (sense CAGGAGGCATCTTGGTTGTAA; chemistry not given here) |  | 1.57 |  | 
Hs_ROCK1_3 (sense CAGATAAAGATCACACTGTTA; chemistry not given here) |  | 0.95 |  | 
Hs_ACO2_5 (CGGGAAGACATTGCCAATCTA; chemistry not given here) | 2.43 |  |  | 
s35018 (GTGTGAAGGTAGACCGTGA; chemistry not given here) |  |  |  | 0.46
Hs_DC-UbP_2 (CAGGCTTTGAGACTCATGTAA; chemistry not given here) | 1.59 |  |  | 
s16999 (GCACGTAACAGCTAAGGAA; chemistry not given here) |  |  | 1.29 | 
s28367 (sense CGACAAGAACGAAGACAGA; chemistry not given here) [reference compound] |  |  | -1.08 | 
s31181 (CCACTCGTTTTGACTATTA; chemistry not given here) |  |  |  | 1.82
s3145 (GACCCTTACCTGGAAGTTT; chemistry not given here) |  |  | 0.19 | 

Substance | Score_si1 | Score_si3 | Score_si2 | Score_si4
Hs_FBXO42_3 (CAGGCTGGGATCAAATCTCCA; chemistry not given here) | 2.82 |  |  | 
s31318 (GTACATCTTCGAATACGAT; chemistry not given here) |  |  | 1.43 | 
s31789 (AGGACATTATCAACCCGGA; chemistry not given here) |  | 1.5 |  | 
Hs_TRAF2_4 (CTGGACCAAGACAAGATTGAA; chemistry not given here) [reference compound] | -1.15 |  |  | 
Hs_CRSP7_1 (sense TACGGTTAACTTGGACGGGCA; chemistry not given here) [reference compound] |  |  | -1.45 | 
Hs_NRCAM_2 (AACGCTCATAATTAACATCAT; chemistry not given here) |  |  |  | 0.35
s29268 (GGATGCGAAAGACAGAGTA; chemistry not given here) |  |  | 1.55 | 
Hs_CIZ1_2 (sense CAGCATGGAAGAGATTCAGAA; chemistry not given here) [reference compound] |  |  | -1.05 | 
s30118 (CCTGCTATCTTGGTTCCAA; chemistry not given here) |  |  |  | 0.62
s5083 (sense CGTCGTCACTAACAGTCAA; chemistry not given here) |  | 1.11 |  | 
s2664 (sense CGTCCATGTTTATCTACAA; chemistry not given here) |  |  |  | 0.12
s1907 (sense GAACTTAGCTAAATTGACT; chemistry not given here) |  |  |  | 0.58
s28378 (sense CATTGTCACTTATTCGACT; chemistry not given here) |  |  |  | 1.57
Hs_PTBP1_3 (sense CGACATAATCTCTGTATTATA; chemistry not given here) [reference compound] |  | -0.58 |  | 
s12382 (sense GATCCGAGCTAAAATCCCA; chemistry not given here) |  |  | 1.86 | 
Hs_ENTPD2_2 (CGGCGTGATCTTCCAGAAGAA; chemistry not given here) | 1.32 |  |  | 
s4917 (sense GTGTATGAGTTTAGAGTCA; chemistry not given here) |  |  | 1.15 | 
Hs_ACYP1_1 (AAGGATTACCACTGTACACAA; chemistry not given here) [reference compound] | -2.79 |  |  | 
Hs_ZZZ3_2 (TAGGAATTTACCTGAATATAA; chemistry not given here) [reference compound] |  |  | -2.58 | 
Hs_NPEPL1_4 (CAGAATTCACTTGAGGTTCAA; chemistry not given here) |  | 1.44 |  | 
Hs_GUCY1B3_3 (sense CAAGACTTTCTTCTAGATATA; chemistry not given here) [reference compound] |  | -0.83 |  | 
Hs_LOXL2_1 (sense CCGGAGTTGCCTGCTCAGAAA; chemistry not given here) |  |  | 1.33 | 
Hs_WDR40A_1 (CAGCATCAATGTGATTAGTAA; chemistry not given here) [reference compound] | -2.68 |  |  | 
Hs_BCHE_2 (CGGGTTGAAAGAGTTATTGTA; chemistry not given here) |  |  | 0.74 | 
Hs_CLCN6_2 (sense CCGGTGAATGTTATTGGAATT; chemistry not given here) |  | -0.01 |  | 
Hs_KAZALD1_1 (sense CCGGAGGAGCTGCTTTCTGAA; chemistry not given here) |  |  | 1.12 | 
Hs_ULK2_6 (CAGCCTGAGATACGTGCCTTA; chemistry not given here) [reference compound] | -2.62 |  |  | 

Substance | Score_si1 | Score_si3 | Score_si2 | Score_si4
s31658 (CGGCCTCTGAGGTGATCAA; chemistry not given here) |  |  | 1.55 | 
Hs_RARSL_3 (sense CACAGGAGTCTTCCTACAGTA; chemistry not given here) [reference compound] | -2.94 |  |  | 
Hs_ZA20D1_1 (AAGGAGGTTCTCAGTCAATAA; chemistry not given here) |  |  | 1.25 | 
Hs_CLK1_2 (sense AACGTGATGAACGCACCTTAA; chemistry not given here) |  | 1.36 |  | 
Hs_GNG13_4 (sense CCCACTCACTCCATCTTGTAA; chemistry not given here) |  | 1.13 |  | 
Hs_EIF2B5_2 (CAAAGTGAAGATGAAAGGTTA; chemistry not given here) | 1.62 |  |  | 
s994 (GAGGAAGTCCTAAATCACA; chemistry not given here) [reference compound] |  |  |  | 1.87
Hs_CDC25A_1 (sense AAGGCGCTATTTGGCGCTTCA; chemistry not given here) |  |  | 1.56 | 
s27235 (sense AGACCCACACTAAAGAATT; chemistry not given here) [reference compound] |  |  | -0.6 | 
Hs_NPAT_2 (AAGGCACATCTTCAAACAATA; chemistry not given here) [reference compound] | -1.61 |  |  | 
s33487 (GGTTATCAATGACGAGCAA; chemistry not given here) |  | 1.7 |  | 
Hs_NRCAM_1 (CAGGCCTTCAGTACAAAGTTA; chemistry not given here) |  | 0.75 |  | 
s19089 (sense GGATAAGACAGTAACCCGA; chemistry not given here) [reference compound] |  | -0.56 |  | 
s38295 (GCAATTCTGACGACAATAT; chemistry not given here) |  | 1.57 |  | 
s1523 (sense CCGGCATCTTTGCTACCTA; chemistry not given here) |  |  |  | 0.87
s38698 (GGATTCTTGTTGGACTAAT; chemistry not given here) |  |  |  | -0.7
Hs_COPG_2 (sense CAGGAAAGGGACATTGTAAAT; chemistry not given here) |  |  | 2.25 | 
Hs_UMPS_4 (AAGCTTCTCAGGCTTATGCAA; chemistry not given here) |  | 1.59 |  | 
Hs_LOC407835_4 (sense CAGGGAGATCAGCATCTGCAT; chemistry not given here) |  |  | 0.79 | 
Hs_GNB2L1_6 (sense AAGGATGGCCAGGCCATGTTA; chemistry not given here) |  |  | 1.62 | 
Hs_CCNF_7 (sense CACGGACAACACTTACAAGTA; chemistry not given here) |  | 0.92 |  | 
s16635 (GAGCACTACTTGTACATGA; chemistry not given here) |  |  | 2.02 | 
Hs_GP1BB_3 (sense CTGCTGCGTCTCCCTTCCAAA; chemistry not given here) [reference compound] |  |  | -0.99 | 
Hs_TMPIT_1 (sense CTGGTGGGTGTTCCATCACTA; chemistry not given here) | 2.87 |  |  | 
s49211 (sense GTTCCTGGGTGTTCACCTA; chemistry not given here) |  |  |  | 0.08
